# Experimental data published in article PMC12561453, “Synthesis and Structure–Activity Relationship Study of 2-(amino)quinazolin-4(3H)-one Derivatives as Potential Inhibitors of Methicillin-Resistant Staphylococcus aureus (MRSA)” (Antibiotics, 2025).
# Like-named read-outs stand apart in the source and are kept apart here.
# Legend:
# [1] = test system: HepG2 cells; experiment: In vitro cytotoxicity, HepG2 viability (resazurin); format: cell-based, human; conditions: Homo sapiens, HepG2, 24 h, read-out: HepG2 IC50
# Protocol: The in vitro cytotoxicity of the compounds was evaluated by measuring the viability of HepG2 cells, a human liver cell line, following treatment in a dose–response manner, as previously described. […] The efficacy window was calculated as the ratio of IC50 in HepG2 cells to MIC50 against JE2.
# To test cytotoxicity with compounds, the human liver cell line HepG2 (ATCC #HB-8065) was used for the assay. HepG2 was cultured in DMEM with 10% fetal bovine serum (FBS) in a 96-well microplate at 37 °C and 5% CO2. HepG2 cells were seeded at a final density of 5 × 10^4 cells/well, and DMEM-containing diluted compounds were added and incubated on the plates at 37 °C in 5% CO2 for 24 h. After that, resazurin (final concentration, 0.1 mg/mL) was added to each well and incubated on the plates at 37 °C in 5% CO2 for 2 h. To detect the fluorescence at 530 nm excitation and 590 nm emission, an Ensight multimode plate reader was used (Revvity, Waltham, MA, USA).
# [2] = test system: S. aureus USA300 JE2 expressing GFP in H460 cells; experiment: microbe, parasite or virus in culture; format: cell-based, Staphylococcus aureus; conditions: for MIC50: Staphylococcus aureus, USA300, 24 h, read-out: H460 Assay MIC50 (MIC50 ex vivo)
# Description: Staphylococcus aureus, including MRSA, can invade host cells and replicate intracellularly, which complicates treatment with current therapies. To evaluate the intracellular antibacterial activities of the selected compounds, the fifteen compounds tested for cytotoxicity were further assessed using a cell infection model based on H460 human lung epithelial cells, which mimic MRSA-mediated pneumonia. H460 cells were infected with the USA300 JE2 expressing green fluorescent protein (GFP) and subsequently treated with the compounds in a dose–response manner, along with three reference antibiotics: vancomycin, linezolid, and erythromycin. After 24 h of incubation, bacterial loads were quantified by measuring GFP fluorescence in each well. MIC50 values determined in the H460 infection model (MIC50 ex vivo) were generally higher than those obtained from the in vitro tests, likely due to either limited compound penetration into host cells or reduced antibacterial effect of the compounds against intracellular bacteria (Figure 3, Table 2). […] These findings underscore the potential of compound 6y as a promising lead for further development as a novel antistaphylococcal agent.
# To see the ex vivo antimicrobial activity of the compound, the human lung carcinoma cell line H460 (ATCC #HTB-177) was used. The H460 cells were cultured in RPMI 1640 medium with 10% fetal bovine serum (FBS) and in a 96-well microplate at 37 °C and 5% CO2. Cell lines were cultured for 2 days, until they reached full confluence in the well. S. aureus (USA300-containing and pCM29-encoding GFP) was cultured in CAMHB with 10 µg/mL of chloramphenicol, and bacterial cells were harvested. After washing the bacterial cells with phosphate-buffered saline (PBS) and suspending them in RPMI, infected H460 cells with S. aureus (1 × 10^7 CFU) and incubated them for 2.5 h. Samples were washed three times with PBS. Then, cells were treated with gentamicin (50 µg/mL of gentamicin in RPMI) and incubated for 1 h. Samples were washed with PBS, RPMI-containing diluted compounds were added, and then they were incubated at 37 °C in 5% CO2 for 24 h. To detect the Green fluorescent protein (GFP) signal, an Ensight multimode plate reader and Opera Phenix Plus (Revvity, Waltham, MA, USA) were used.
# Ex vivo infection model images were generated using the Opera Phenix Plus high-content imaging system. Images were obtained by a confocal microscope with a 20× water objective lens. To detect the bacteria fluorescence signal (GFP), the Alexa 488 channel (488 nm laser/500–550 filter, Thermo Fisher Scientific, Waltham, MA, USA) was used, and the brightfield channel was used for H460 cell images.
# Figure 3 Antibacterial activities of 2-(amino)quinazolin-4(3H)-one derivatives in the H460 infection model. H460 cells were infected with S. aureus USA300 JE strain expressing GFP, followed by treatment with serial dilutions of 2-(amino)quinazolin-4(3H)-one derivatives. After incubation at 37 °C for 24 h with 5% CO2, fluorescence signals of the bacteria were detected at 488 nm/510 nm using a multilabel plate reader.
# [3] = test system: S. aureus ATCC25923; experiment: Broth microdilution dose-response, S. aureus ATCC25923; format: cell-based, Staphylococcus aureus
# Description: (§1) The antistaphylococcal activities (MIC50) of the synthesized compounds were examined via a previously described broth microdilution method against two S. aureus strains: ATCC25923, a methicillin-sensitive reference strain, and JE2, a methicillin-resistant strain of the USA300 lineage (Figure 2, Table 1).
# (§2) Staphylococcus aureus USA300, a methicillin-resistant strain, was obtained from the Nebraska Transposon Mutant Library. Staphylococcus aureus ATCC25923, a pan-drug-susceptible strain, was purchased from the American Type Culture Collection (ATCC) (Manassas, VA, USA). S. aureus strains were grown in Cation-Adjusted Mueller–Hinton broth (CAMHB) (Difco) at 37 °C. Bacterial strain stocks were stored in vials with 25% glycerol at −80 °C. For each experiment, overnight cultures were prepared by inoculating a frozen bacterial strain stock in 10 mL of CAMHB medium and incubating at 37 °C in a shaking incubator (180 rpm). For the preliminary screen and dose–response experiments, 100 µL of overnight culture was inoculated into 10 mL of fresh CAMHB and incubated for 3 h at 37 °C and 180 rpm.
# (§3) Antibiotic susceptibility assay was tested according to modified Clinical and Laboratory Standards Institute (CLSI) laboratory guidelines for broth microdilution assays. S. aureus was cultured in CAMHB, and bacterial cells were prepared with an OD600 of 0.005. DRC plates were prepared by adding 40 µL of bacterial suspension to each well, where 10 µL of each compound had been dispensed for […] of two-fold serial dilutions starting at […]. After incubation of the plates at 37 °C for 18–24 h with 5% CO2, the growth of S. aureus was detected by measuring the OD600nm using an Ensight (Revvity) spectrometer (Revvity, Waltham, MA, USA).
# (§4) Figure 2 In vitro antibacterial activities of 2-(amino)quinazolin-4(3H)-one derivatives. S. aureus ATCC25923 (blue) and USA300 JE (orange) strains were incubated with serial dilutions of 2-(amino)quinazolin-4(3H)-one derivatives (0.19–100 µM) for 18–24 h. The dose–responses were observed by measuring OD600nm. The plots were drawn from each group of strains with nonlinear curve fits.
# [4] = test system: S. aureus USA300 JE2; experiment: Broth microdilution dose-response, S. aureus USA300 JE2 (MRSA); format: cell-based, Staphylococcus aureus; conditions: for fold better antibacterial activity against JE2 compared to compound 1: JE2, versus compound 1
# Description: as §1, §2, §3, §4
# [5] = Staphylococcus aureus, ATCC25923, methicillin-sensitive strain, OD600 after 18–24 h, read-out: ATCC25923 MIC50
# [6] = methicillin-sensitive strain, OD600 after 18–24 h, read-out: ATCC25923 MIC50
# [7] = Staphylococcus aureus, USA300, USA300 JE2, methicillin-resistant, OD600 after 18–24 h, read-out: USA300 MIC50
# [8] = USA300 JE2, methicillin-resistant, OD600 after 18–24 h, read-out: USA300 MIC50
Compound,"IC50 ([1]; HepG2 cells, 24 h, resazurin) [µM]",MIC50 [2] [µM],"MIC50 [3, 5] [µM]","MIC50 [3, 6] [µM]",fold better antibacterial activity against JE2 compared to compound 1 [4],"MIC50 [4, 7] [µM]","MIC50 [4, 8] [µM]",IC50 [1] [µM],"H460 Assay MIC50 (MIC50 ex vivo) ([2]; H460 cells infected with USA300 JE2-GFP, 24 h, GFP fluorescence) [µM]","MIC50 ([3]; Staphylococcus aureus, ATCC25923, read-out: ATCC25923 MIC50) [µM]","MIC50 ([4]; Staphylococcus aureus, USA300, read-out: USA300 MIC50) [µM]"
"O=c1[nH]c(Nc2cc(Cl)cc(Cl)c2)nc2cc(Cl)c(Cl)cc12 [6h, 6,7-Dichloro-2-((3,5-dichlorophenyl)amino)quinazolin-4(3H)-one]",10.2,4.1,3 to 6,3.7,at least 6.5 fold,0.3 to 1.9,0.3,,,,
"O=c1[nH]c(Nc2cc(Cl)cc(Cl)c2)nc2c(Cl)cc(Cl)cc12 [6i, 6,8-Dichloro-2-((3,5-dichlorophenyl)amino)quinazolin-4(3H)-one]",39.5,26.5,3 to 6,5.7,at least 6.5 fold,,,,,,
"O=c1[nH]c(Nc2cc(Cl)cc(Cl)c2)nc2ccccc12 [6j, 2-((3,5-Dichlorophenyl)amino)quinazolin-4(3H)-one]",29.7,35.4,3 to 6,5.9,at least 6.5 fold,,,,,,
"O=c1[nH]c(Nc2cc(Cl)cc(Cl)c2)nc2cc(C(F)(F)F)ccc12 [6k, 2-((3,5-Dichlorophenyl)amino)-7-(trifluoromethyl)quinazolin-4(3H)-one]",10.5,6,1.3,,,0.3,,,,,
"O=c1[nH]c(Nc2cc(F)cc(F)c2)nc2cc(Cl)ccc12 [6q, 7-Chloro-2-((3,5-difluorophenyl)amino)quinazolin-4(3H)-one]",35.5,8.7,2.1 to 4.5,2.1,,0.9 to 3,0.9,,,,
"O=c1[nH]c(Nc2cccc(Cl)c2)nc2cc(Cl)ccc12 [6u, 7-Chloro-2-((3-chlorophenyl)amino)quinazolin-4(3H)-one]",4.3,19.2,2.1 to 4.5,3.5,,0.9 to 3,1.1,,,,
"O=c1[nH]c(Nc2ccc(Cl)cc2)nc2cc(Cl)ccc12 [6v, 7-Chloro-2-((4-chlorophenyl)amino)quinazolin-4(3H)-one]",25.5,23.9,2.1 to 4.5,2.7,,0.9 to 3,1.7,,,,
"O=c1[nH]c(NCc2ccc(Cl)cc2Cl)nc2cc(Cl)ccc12 [6x, 7-Chloro-2-((2,4-dichlorobenzyl)amino)quinazolin-4(3H)-one]",15.3,17.8,2.1 to 4.5,3.4,,0.9 to 3,1.7,,,,
"CC[C@H]1OC(=O)[C@H](C)[C@@H](O[C@H]2C[C@@](C)(OC)[C@@H](O)[C@H](C)O2)[C@H](C)[C@@H](O[C@@H]2O[C@H](C)C[C@H](N(C)C)[C@H]2O)[C@](C)(O)C[C@@H](C)C(=O)[C@H](C)[C@@H](O)[C@]1(C)O [Erythromycin, reference compound]",> 100,0.1,0.7,,,0.49,,,,,
"CN[C@H](CC(C)C)C(=O)N[C@H]1C(=O)N[C@@H](CC(N)=O)C(=O)N[C@H]2C(=O)N[C@H]3C(=O)N[C@H](C(=O)N[C@H](C(=O)O)c4cc(O)cc(O)c4-c4cc3ccc4O)[C@H](O)c3ccc(c(Cl)c3)Oc3cc2cc(c3O[C@@H]2O[C@H](CO)[C@@H](O)[C@H](O)[C@H]2O[C@H]2C[C@](C)(N)[C@H](O)[C@H](C)O2)Oc2ccc(cc2Cl)[C@H]1O [Vancomycin, reference compound]",,7.7,,,,,,> 100,7.7,0.3,0.35
